These results are taken from ChEMBL document CHEMBL1146756, “Studies on aromatic compounds: inhibition of calpain I by biphenyl derivatives and peptide-biphenyl hybrids” (Bioorg Med Chem Lett, 2004).

One may read the IC50 as the midpoint of a concentration-inhibition curve. A high value points to weaker potency in that assay.

Target in one assay: not listed separately
Put plainly: Displacement of casein from calpain 1 in porcine erythrocytes. It is filed as cell-based, Sus scrofa.
`COC(=O)[C@H](Cc1ccccc1)NC(=O)[C@H](CCSC)NC(=O)c1ccccc1-c1ccccc1C(=O)N[C@@H](CCSC)C(=O)N[C@@H](Cc1c[nH]c2ccccc12)C(=O)OC` returned an IC50 of 77 µM.
The molecule `COC(=O)[C@@H](NC(=O)c1ccccc1-c1ccccc1C(=O)N[C@H](C(=O)OC)C(C)C)C(C)C` returned an IC50 of 7 µM.
Turning to `O=C(N[C@@H](Cc1ccccc1)C(=O)O)c1ccccc1-c1ccccc1C(=O)N[C@@H](Cc1ccccc1)C(=O)O`, the IC50 is 0.07 µM.
The same measure, in the same setting: the figure for `O=C(N[C@@H](Cc1ccc(O)cc1)C(=O)O)c1ccccc1-c1ccccc1C(=O)N[C@@H](Cc1ccc(O)cc1)C(=O)O` is 200 µM; for `COC(=O)[C@H](Cc1ccccc1)NC(=O)[C@H](Cc1ccccc1)NC(=O)c1ccccc1-c1ccccc1C(=O)N[C@@H](Cc1ccccc1)C(=O)N[C@@H](Cc1ccccc1)C(=O)OC` it is 0.098 µM; for `COC(=O)[C@H](Cc1ccccc1)NC(=O)c1ccccc1-c1ccccc1C(=O)N[C@@H](Cc1ccccc1)C(=O)OC` it is 0.064 µM.
`C=CCO[C@H]1O[C@H](CNC(=O)c2ccccc2-c2ccccc2C(=O)N[C@@H](Cc2ccc(O)cc2)C(=O)OC)C=C[C@@H]1CC(=O)N[C@@H](Cc1ccccc1)C(=O)N[C@@H](CC(C)C)C(=O)NC` returned an IC50 of 116 µM.
Regarding `COC(=O)[C@H](Cc1c[nH]c2ccccc12)NC(=O)c1ccccc1-c1ccccc1C(=O)N[C@@H](Cc1c[nH]c2ccccc12)C(=O)OC`, the IC50 came out at 0.037 µM.
On the same count and under the same terms, the result for `COC(=O)[C@@H](NC(=O)[C@H](Cc1ccccc1)NC(=O)c1ccccc1-c1ccccc1C(=O)N[C@@H](Cc1ccccc1)C(=O)Nc1ccccc1-c1ccccc1NC(=O)[C@H](C)NC(=O)OCC1c2ccccc2-c2ccccc21)C(C)C` reads 41 µM.
On the same count and under the same terms, the figure for `COC(=O)[C@H](Cc1ccccc1)NC(=O)[C@@H](NC(=O)c1ccccc1-c1ccccc1C(=O)N[C@H](C(=O)N[C@@H](Cc1ccccc1)C(=O)OC)C(C)C)C(C)C` is 0.024 µM.

A further assay deals with T1, Calpain small subunit 1 (Sus scrofa, UniProt P04574).
T1 sequence (P04574 whole entry): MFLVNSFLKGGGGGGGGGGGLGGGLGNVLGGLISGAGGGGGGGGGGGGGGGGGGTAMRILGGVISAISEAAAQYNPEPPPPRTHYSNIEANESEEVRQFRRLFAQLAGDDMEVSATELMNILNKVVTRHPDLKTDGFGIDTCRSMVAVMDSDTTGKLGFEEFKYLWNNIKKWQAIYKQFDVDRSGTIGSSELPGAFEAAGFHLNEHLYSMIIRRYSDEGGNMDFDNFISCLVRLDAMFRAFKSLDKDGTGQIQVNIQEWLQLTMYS
Put plainly: Ability to displace labelledcasein from calpain I in porcine erythrocytes; Weak inhibitor. In kind it is cell-based.
On to `CNC(=O)[C@@H](Cc1ccccc1)NC(=O)[C@H](Cc1ccccc1)NC(=O)c1ccccc1-c1ccccc1C(=O)N[C@@H](CC(C)C)C(=O)N[C@@H](CCSC)C(=O)OC`, for which the IC50 result is listed as “Weak inhibitor”.
The same measure, in the same setting: the entry for `COC(=O)[C@H](Cc1ccc(O)cc1)NC(=O)c1ccccc1-c1ccccc1C(=O)N[C@@H](Cc1ccccc1)C(=O)N[C@@H](CCSC)C(=O)OC` is “Weak inhibitor”.

A further assay deals with T1, Calpain small subunit 1. The assay can be described thus: Ability to displace labelledcasein from calpain I in porcine erythrocytes; Noninhibitor. It is filed as cell-based.
Turning to `COC(=O)[C@H](Cc1c[nH]cn1)NC(=O)c1ccccc1-c1ccccc1C(=O)N[C@@H](Cc1c[nH]cn1)C(=O)OC`, the IC50 entry is reported as “No inhibition”.
The same measure, in the same setting: the result for `COC(=O)[C@H](Cc1ccccc1)NC(=O)c1ccccc1-c1ccccc1C(=O)O` reads “No inhibition”.
Same read-out and setting: the result for `CCC(C)[C@H](NC(=O)c1ccccc1-c1ccccc1C(=O)N[C@H](C(=O)OC)C(C)CC)C(=O)OC` (some centres not stated) reads “No inhibition”; that for `COC(=O)[C@H](Cc1ccc(O)cc1)NC(=O)c1ccccc1-c1ccccc1C(=O)N[C@@H](Cc1ccc(O)cc1)C(=O)OC`, “No inhibition”; that for `COC(=O)[C@H](C)NC(=O)c1ccccc1-c1ccccc1C(=O)N[C@@H](C)C(=O)OC`, “No inhibition”.
